What was measured:
granulocytes (Gran-lin) = assay: MLTA, Gran: concentration-response and QSP model fit; type: cell-based, human
How it was run: (§1)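 Six-day flow cytometry counts, bead-normalized and expressed relative to the mean of six vehicle wells, underlie each value. Cells were primary human bone marrow CD34+ cells cultured in SFEM II with cytokines promoting multi-lineage differentiation and self-renewal.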

MK cells (MK-lin) = assay: MLTA, MK: concentration-response and QSP model fit; type: cell-based, human; conditions: Homo sapiens, 144 h
How it was run: as §1

[1] = tested on: late erythroid cells (Eryth II); assay: MLTA, ErythII: concentration-response and QSP model fit; type: cell-based, human; conditions: Homo sapiens, 144 h
How it was run: as §1

[2] = tested on: granulocyte-macrophage progenitor (GMPs); assay: MLTA, GMPs: concentration-response and QSP model fit; type: cell-based, human; conditions: Homo sapiens, 144 h, 6 days, normalized to vehicle control, read-out: GMPs normalized cell count
How it was run: as §1

[3] = tested on: neutrophils (neutrophil-lin); assay: MLTA, Neut: concentration-response and QSP model fit; type: cell-based, human; conditions: Homo sapiens, Neutrophil, 144 h
How it was run: as §1

B cells (B-lin) = assay: MLTA, B-lin: concentration-response and QSP model fit; type: cell-based, human; conditions: Homo sapiens, B-cell, 144 h
How it was run: as §1

[4] = tested on: total dead cells (totalDeadCells); assay: MLTA, total dead cells concentration-response; type: cell-based; conditions: Homo sapiens, 144 h, 6 days, normalized to vehicle control, read-out: total_dead normalized cell count
How it was run: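 Freeze-thawed primary human bone marrow CD34+ cells in SFEM II with cytokine cocktail, drug added day 0, 6 days at 37°C, 5% CO2. Live/dead counts by 17-parameter flow cytometry with DAPI exclusion, bead-normalized, volume-corrected to cells/mL. Normalized per donor to mean of six vehicle wells; 2–7 donors pooled.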

[5] = tested on: multi-potent progenitors (MPPs); assay: MLTA, MPPs: concentration-response and QSP model fit; type: cell-based, human
How it was run: as §1

[6] = tested on: human bone marrow-derived CD34+ cells differentiated into multiple hematopoietic lineages; assay: MLTA, overall effects across hematopoietic lineages; type: cell-based; conditions: QSP model fit; EmaxT > 1.0 = cell-killing
Description: A custom optimized cytokine cocktail was developed using commercially available cytokines (Peprotech, New Jersey) to facilitate simultaneous multi-lineage differentiation and self-renewal of freeze-thawed primary human bone marrow-derived CD34+ cells in SFEM II media (cells and media from StemCell Technologies, Vancouver). Cultures were carried out in ultra-low attachment 96-well plates (Corning, New York) with test article added on day 0 and cultured at 37°C, 85% relative humidity, and 5% CO2 for six days before interrogating drug impact via 17-parameter flow cytometry.
The flow cytometry panel used to define hematopoietic subsets was composed of CD34-PECy7, CD90-PECY5, CD38-AF488, CD371-PE, CD45Ra-BV421, CD14-BV605, CD42b-AF647, CD10-PEDazzle594, CD235a-PerCPCy5.5 (BioLegend, California), CD15-BUV395, CD41a-APCH7, CD71-BV786 (BD Biosciences, California), and DAPI for dead cell exclusion (ThermoFisher, California). In short, Day 6 cells were harvested, FcR-blocked (FcR binding inhibitor, ThermoFisher), surface-stained, then analyzed in a buffer containing TruCount Control Beads using a BD LSR Fortessa SORP fitted with a high-throughput sampler (BD Biosciences, California). Data was analyzed in Diva 6.0.2 and exported to CSV where after all cell data was transformed to cell per mL then normalized on a per-donor basis to untreated control wells to determine drug impact.
Donor material was collected and cultured as described above. The number of replicate donor samples per drug ranged from 2–7 and varied per drug (S1 Table). Drug treatment was added at time 0 and cells were maintained in culture for 6 days. Concentrations tested for each drug compound are contained in S1 Table. Concentrations were selected to span a range that is clinically useful. Following treatment, cell populations were measured using flow cytometry. We extracted cell counts from flow cytometry data, normalized to bead counts, and corrected for well volume.
Each well was normalized to the average of six vehicle control wells. For drugs that were tested across multiple runs of the assay, vehicle-normalized donor data were pooled, and we used the average of these pooled data for further modeling. Normalized data used as model inputs are included in S1 Table.
We implemented drug effects using an Emax model for the drug’s effect on each cell type. The 13 maximum effect parameters (EmaxT,C) are unitless and can vary between 0 and 2 and where a subscript, C, represents one of the previously described 13 cell types. We adapted a traditional Emax model using the equations below. We interpreted EmaxT values less than or equal to one as anti-proliferative, and EmaxT values greater than one as indicating a cell-killing mechanism in addition to anti-proliferation. The relationships for these effects are included in the model using the following equations. Eq 2 describes the drug anti-proliferative effect in the net proliferation rate for a given cell type. Eq 3 describes the cell-killing EmaxCK effect.

[7] = Homo sapiens, 144 h, QSP model fit of 6-day MLTA data
[8] = cell-killing component, max(0, EmaxT-1)
[9] = QSP model fit of 6-day MLTA data

Which results are given for `CC(=O)O[C@@]12CO[C@@H]1C[C@H](O)[C@@]1(C)C(=O)[C@H](O)C3=C(C)[C@@H](OC(=O)[C@H](O)[C@@H](NC(=O)OC(C)(C)C)c4ccccc4)C[C@@](O)([C@@H](OC(=O)c4ccccc4)[C@H]21)C3(C)C` [docetaxel]?
EC50 (granulocytes (Gran-lin); [7]): 7.91 nM; activity at 0.0002 µM (granulocytes (Gran-lin); Homo sapiens, 144 h, dose 0.2 nM, 6 days, normalized to vehicle control, read-out: Gran normalized cell count): 99.7%; activity at 0.001 µM (granulocytes (Gran-lin); Homo sapiens, 144 h, dose 1 nM, 6 days, normalized to vehicle control, read-out: Gran normalized cell count): 112%; activity at 0.005 µM (granulocytes (Gran-lin); Homo sapiens, 144 h, dose 5 nM, 6 days, normalized to vehicle control, read-out: Gran normalized cell count): 2.09%; activity at 0.025 µM (granulocytes (Gran-lin); Homo sapiens, 144 h, dose 25 nM, 6 days, normalized to vehicle control, read-out: Gran normalized cell count): 0.0343%; activity at 0.1 µM (granulocytes (Gran-lin); Homo sapiens, 144 h, dose 100 nM, 6 days, normalized to vehicle control, read-out: Gran normalized cell count): 0.0437%; activity at 0.5 µM (granulocytes (Gran-lin); Homo sapiens, 144 h, dose 500 nM, 6 days, normalized to vehicle control, read-out: Gran normalized cell count): 0.0563%; activity at 2.5 µM (granulocytes (Gran-lin); Homo sapiens, 144 h, dose 2500 nM, 6 days, normalized to vehicle control, read-out: Gran normalized cell count): 0.0425%; Emax (granulocytes (Gran-lin); Homo sapiens, 144 h, parameter from QSP model fitting, read-out: Emax_drug_Gran): 276%; EmaxCK,Gran (granulocytes (Gran-lin); [8]): 1.762 day⁻¹; EC50 (MK cells (MK-lin); [9]): 7.79 nM; activity at 0.0002 µM (MK cells (MK-lin); dose 0.2 nM, 6 days, normalized to vehicle control, read-out: MK normalized cell count): 94.7%; activity at 0.001 µM (MK cells (MK-lin); dose 1 nM, 6 days, normalized to vehicle control, read-out: MK normalized cell count): 109%; activity at 0.005 µM (MK cells (MK-lin); dose 5 nM, 6 days, normalized to vehicle control, read-out: MK normalized cell count): 14.4%; activity at 0.025 µM (MK cells (MK-lin); dose 25 nM, 6 days, normalized to vehicle control, read-out: MK normalized cell count): 1.1%; activity at 0.1 µM (MK cells (MK-lin); dose 100 nM, 6 days, normalized to vehicle control, read-out: MK normalized cell count): 0.719%; activity at 0.5 µM (MK cells (MK-lin); dose 500 nM, 6 days, normalized to vehicle control, read-out: MK normalized cell count): 0.951%; activity at 2.5 µM (MK cells (MK-lin); dose 2500 nM, 6 days, normalized to vehicle control, read-out: MK normalized cell count): 1.05%; Emax (MK cells (MK-lin); parameter from QSP model fitting, read-out: Emax_drug_MK): 12.6%; EC50 ([1]; QSP model fit of 6-day MLTA data, read-out: EC50ErythII): 6.3 nM; activity at 0.0002 µM ([1]; dose 0.2 nM, 6 days, normalized to vehicle control, read-out: ErythII normalized cell count): 91.6%; activity at 0.001 µM ([1]; dose 1 nM, 6 days, normalized to vehicle control, read-out: ErythII normalized cell count): 105%; activity at 0.005 µM ([1]; dose 5 nM, 6 days, normalized to vehicle control, read-out: ErythII normalized cell count): 0.449%; activity at 0.025 µM ([1]; dose 25 nM, 6 days, normalized to vehicle control, read-out: ErythII normalized cell count): 0.0341%; activity at 0.1 µM ([1]; dose 100 nM, 6 days, normalized to vehicle control, read-out: ErythII normalized cell count): 0.0344%; activity at 0.5 µM ([1]; dose 500 nM, 6 days, normalized to vehicle control, read-out: ErythII normalized cell count): 0.0336%; activity at 2.5 µM ([1]; dose 2500 nM, 6 days, normalized to vehicle control, read-out: ErythII normalized cell count): 0.0256%; Emax ([1]; parameter from QSP model fitting, read-out: Emax_drug_ErythroidII): 1.59%; activity at 0.0002 µM ([2]; dose 0.2 nM): 103%; activity at 0.001 µM ([2]; dose 1 nM): 126%; activity at 0.005 µM ([2]; dose 5 nM): 15.2%; activity at 0.025 µM ([2]; dose 25 nM): 0.367%; activity at 0.1 µM ([2]; dose 100 nM): 0.162%; activity at 0.5 µM ([2]; dose 500 nM): 0.693%; activity at 2.5 µM ([2]; dose 2500 nM): 0.207%; EC50 [3, 9]: 13.7 nM; activity at 0.0002 µM ([3]; dose 0.2 nM, 6 days, normalized to vehicle control, read-out: Neut normalized cell count): 90.8%; activity at 0.001 µM ([3]; dose 1 nM, 6 days, normalized to vehicle control, read-out: Neut normalized cell count): 99.6%; activity at 0.005 µM ([3]; dose 5 nM, 6 days, normalized to vehicle control, read-out: Neut normalized cell count): 0.23%; activity at 0.025 µM ([3]; dose 25 nM, 6 days, normalized to vehicle control, read-out: Neut normalized cell count): 0.177%; activity at 0.1 µM ([3]; dose 100 nM, 6 days, normalized to vehicle control, read-out: Neut normalized cell count): 0.139%; activity at 0.5 µM ([3]; dose 500 nM, 6 days, normalized to vehicle control, read-out: Neut normalized cell count): 0.0727%; activity at 2.5 µM ([3]; dose 2500 nM, 6 days, normalized to vehicle control, read-out: Neut normalized cell count): 0%; Emax ([3]; parameter from QSP model fitting, read-out: Emax_drug_Neut): 23.2%; EC50 (B cells (B-lin); [9]): 10.4 nM; activity at 0.0002 µM (B cells (B-lin); dose 0.2 nM, 6 days, normalized to vehicle control, read-out: B-lin normalized cell count): 89%; activity at 0.001 µM (B cells (B-lin); dose 1 nM, 6 days, normalized to vehicle control, read-out: B-lin normalized cell count): 94.8%; activity at 0.005 µM (B cells (B-lin); dose 5 nM, 6 days, normalized to vehicle control, read-out: B-lin normalized cell count): 3.47%; activity at 0.025 µM (B cells (B-lin); dose 25 nM, 6 days, normalized to vehicle control, read-out: B-lin normalized cell count): 0.169%; activity at 0.1 µM (B cells (B-lin); dose 100 nM, 6 days, normalized to vehicle control, read-out: B-lin normalized cell count): 1.5%; activity at 0.5 µM (B cells (B-lin); dose 500 nM, 6 days, normalized to vehicle control, read-out: B-lin normalized cell count): 1.33%; activity at 2.5 µM (B cells (B-lin); dose 2500 nM, 6 days, normalized to vehicle control, read-out: B-lin normalized cell count): 0.24%; Emax (B cells (B-lin); parameter from QSP model fitting, read-out: Emax_drug_B): 102%; activity at 0.0002 µM ([4]; dose 0.2 nM): 104%; activity at 0.001 µM ([4]; dose 1 nM): 107%; activity at 0.005 µM ([4]; dose 5 nM): 113%; activity at 0.025 µM ([4]; dose 25 nM): 45.7%; activity at 0.1 µM ([4]; dose 100 nM): 46.1%; activity at 0.5 µM ([4]; dose 500 nM): 41.6%; activity at 2.5 µM ([4]; dose 2500 nM): 48.4%; EC50 [5, 7]: 4.71 nM; activity at 0.0002 µM ([5]; Homo sapiens, 144 h, dose 0.2 nM, 6 days, normalized to vehicle control, read-out: MPPs normalized cell count): 91%; activity at 0.001 µM ([5]; Homo sapiens, 144 h, dose 1 nM, 6 days, normalized to vehicle control, read-out: MPPs normalized cell count): 107%; activity at 0.005 µM ([5]; Homo sapiens, 144 h, dose 5 nM, 6 days, normalized to vehicle control, read-out: MPPs normalized cell count): 63.9%; activity at 0.025 µM ([5]; Homo sapiens, 144 h, dose 25 nM, 6 days, normalized to vehicle control, read-out: MPPs normalized cell count): 2.42%; activity at 0.1 µM ([5]; Homo sapiens, 144 h, dose 100 nM, 6 days, normalized to vehicle control, read-out: MPPs normalized cell count): 0.694%; activity at 0.5 µM ([5]; Homo sapiens, 144 h, dose 500 nM, 6 days, normalized to vehicle control, read-out: MPPs normalized cell count): 2.03%; activity at 2.5 µM ([5]; Homo sapiens, 144 h, dose 2500 nM, 6 days, normalized to vehicle control, read-out: MPPs normalized cell count): 0.798%; Emax ([5]; Homo sapiens, 144 h, parameter from QSP model fitting, read-out: Emax_drug_MPP): 201%; EmaxCK,MPP [5, 8]: 1.014 day⁻¹; EmaxT effects across cell types (overall statement) [6]: > 1.0

Reference: PMC7402526, “An in vitro quantitative systems pharmacology approach for deconvolving mechanisms of drug-induced, multilineage cytopenias” (PLoS Computational Biology, 2020)
